Test results as given in the OligoGym collection.
Oligonucleotides are written 5' to 3', each unit as a sugar letter and its base; * is a phosphorothioate linkage, no mark a phosphodiester; rarer units and linkages stand in square brackets, end groups in braces. Plain capitals give the bases only. d = 2'-deoxy (DNA); r = 2'-OH (RNA)

What follows are substances tested against UBE2M (assay: reporter assay of Huesken 2005). Settings: siRNA.
Also: test concentration or dose not given here.

First: sense rUrCrUrCrUrUrCrUrUrGrGrArGrCrCrCrArArCdTdT / antisense rGrUrUrGrGrGrCrUrCrCrArArGrArArGrArGrAdTdA
Second: sense rUrUrCrUrArCrArArGrArGrUrGrGrGrArArGrUdTdT / antisense rArCrUrUrCrCrCrArCrUrCrUrUrGrUrArGrArAdGdC
The normalised inhibition (eCFP-eYFP dual reporter) of the first is higher: 69.7% for the first, 68.9% for the second.

Going from “sense rUrGrArArCrArArGrGrArGrGrCrCrGrCrArGrAdTdT / antisense rUrCrUrGrCrGrGrCrCrUrCrCrUrUrGrUrUrCrAdGdT” to “sense rCrUrUrGrGrArGrCrCrCrArArCrCrCrCrGrArGdTdT / antisense rCrUrCrGrGrGrGrUrUrGrGrGrCrUrCrCrArArGdAdA”, the normalised inhibition (eCFP-eYFP dual reporter) falls from 65.9% to 64.5%.

First: sense rUrCrUrUrCrUrUrGrGrArGrCrCrCrArArCrCrCdTdT / antisense rGrGrGrUrUrGrGrGrCrUrCrCrArArGrArArGrAdGdA
Second: sense rGrGrUrGrArArGrUrGrUrGrArGrArCrArArUrGdTdT / antisense rCrArUrUrGrUrCrUrCrArCrArCrUrUrCrArCrCdTdT
The normalised inhibition (eCFP-eYFP dual reporter) of the first is lower: 56.1% for the first, 81.7% for the second.

Going from “sense rGrCrArGrCrArGrCrArArGrArArGrGrCrGrUrCdTdT / antisense rGrArCrGrCrCrUrUrCrUrUrGrCrUrGrCrUrGrCdCdC” to “sense rArCrGrArUrArArArCrUrCrCrArUrArArUrUrUdTdT / antisense rArArArUrUrArUrGrGrArGrUrUrUrArUrCrGrUdAdA”, the normalised inhibition (eCFP-eYFP dual reporter) rises from 61% to 82.2%.

First: sense rCrCrUrGrArUrGrArGrGrGrCrUrUrCrUrArCrAdTdT / antisense rUrGrUrArGrArArGrCrCrCrUrCrArUrCrArGrGdAdC
Second: sense rGrUrCrArUrCrUrGrUrCrCrUrGrArUrGrArGrGdTdT / antisense rCrCrUrCrArUrCrArGrGrArCrArGrArUrGrArCdCdA
The normalised inhibition (eCFP-eYFP dual reporter) of the first is higher: 77.9% for the first, 58.9% for the second.

Going from “sense rGrGrArCrCrCrArCrUrGrArArCrArArGrGrArGdTdT / antisense rCrUrCrCrUrUrGrUrUrCrArGrUrGrGrGrUrCrCdTdC” to “sense rGrUrUrCrArGrUrUrUrUrArArGrGrUrGrGrGrCdTdT / antisense rGrCrCrCrArCrCrUrUrArArArArCrUrGrArArCdAdC”, the normalised inhibition (eCFP-eYFP dual reporter) falls from 63.1% to 53.9%.

Compared with “sense rGrCrArGrArGrGrUrCrCrUrGrCrArGrArArCrAdTdT / antisense rUrGrUrUrCrUrGrCrArGrGrArCrCrUrCrUrGrCdGdG”, “sense rCrUrGrArArCrArArGrGrArGrGrCrCrGrCrArGdTdT / antisense rCrUrGrCrGrGrCrCrUrCrCrUrUrGrUrUrCrArGdTdG” is lower in normalised inhibition (eCFP-eYFP dual reporter): 69.9% for the first, 68.6% for the second.

First: sense rArGrCrUrGrArArCrCrUrGrCrCrCrArArGrArCdTdT / antisense rGrUrCrUrUrGrGrGrCrArGrGrUrUrCrArGrCrUdCdG
Second: sense rArGrGrArGrGrArGrGrArGrUrCrGrGrCrGrGrGdTdT / antisense rCrCrCrGrCrCrGrArCrUrCrCrUrCrCrUrCrCrUdTdC
The normalised inhibition (eCFP-eYFP dual reporter) of the first is higher: 71.8% for the first, 41.7% for the second.

First: sense rCrArArCrCrCrCrGrArGrGrArCrCrCrArCrUrGdTdT / antisense rCrArGrUrGrGrGrUrCrCrUrCrGrGrGrGrUrUrGdGdG
Second: sense rCrArGrCrUrUrCrUrCrArGrArUrCrCrArGrArCdTdT / antisense rGrUrCrUrGrGrArUrCrUrGrArGrArArGrCrUrGdAdT
The normalised inhibition (eCFP-eYFP dual reporter) of the first is lower: 62.8% for the first, 79.3% for the second.

Going from “sense rGrUrCrCrUrUrArCrGrArUrArArArCrUrCrCrAdTdT / antisense rUrGrGrArGrUrUrUrArUrCrGrUrArArGrGrArCdTdG” to “sense rArGrCrArGrCrArArGrArArGrGrCrGrUrCrGrGdTdT / antisense rCrCrGrArCrGrCrCrUrUrCrUrUrGrCrUrGrCrUdGdC”, the normalised inhibition (eCFP-eYFP dual reporter) falls from 76.7% to 53%.

Compared with “sense rCrUrArCrArArGrArGrUrGrGrGrArArGrUrUrUdTdT / antisense rArArArCrUrUrCrCrCrArCrUrCrUrUrGrUrArGdAdA”, “sense rArGrUrCrGrGrCrGrGrGrCrGrGrCrArCrCrArAdTdT / antisense rUrUrGrGrUrGrCrCrGrCrCrCrGrCrCrGrArCrUdCdC” is lower in normalised inhibition (eCFP-eYFP dual reporter): 87.3% for the first, 73.6% for the second.

Going from “sense rCrUrGrCrArGrArArCrArArCrCrGrGrCrGrGrCdTdT / antisense rGrCrCrGrCrCrGrGrUrUrGrUrUrCrUrGrCrArGdGdA” to “sense rUrArArUrUrUrArUrGrGrCrCrUrGrCrArGrUrAdTdT / antisense rUrArCrUrGrCrArGrGrCrCrArUrArArArUrUrAdTdG”, the normalised inhibition (eCFP-eYFP dual reporter) rises from 64.1% to 67%.

First: sense rCrGrGrCrGrGrCrGrCrArGrCrUrGrCrGrGrArUdTdT / antisense rArUrCrCrGrCrArGrCrUrGrCrGrCrCrGrCrCrGdAdC
Second: sense rUrCrArCrCrCrCrArArCrArUrUrGrArCrCrUrCdTdT / antisense rGrArGrGrUrCrArArUrGrUrUrGrGrGrGrUrGrAdTdA
The normalised inhibition (eCFP-eYFP dual reporter) of the first is higher: 69.9% for the first, 65.4% for the second.

Going from “sense rGrGrCrCrUrGrCrArGrUrArUrCrUrCrUrUrCrUdTdT / antisense rArGrArArGrArGrArUrArCrUrGrCrArGrGrCrCdAdT” to “sense rGrCrCrArGrUrCrCrUrUrArCrGrArUrArArArCdTdT / antisense rGrUrUrUrArUrCrGrUrArArGrGrArCrUrGrGrCdTdT”, the normalised inhibition (eCFP-eYFP dual reporter) falls from 80.2% to 68.5%.

Compared with “sense rArGrUrCrCrUrUrArCrGrArUrArArArCrUrCrCdTdT / antisense rGrGrArGrUrUrUrArUrCrGrUrArArGrGrArCrUdGdG”, “sense rUrCrArUrCrUrGrUrCrCrUrGrArUrGrArGrGrGdTdT / antisense rCrCrCrUrCrArUrCrArGrGrArCrArGrArUrGrAdCdC” is lower in normalised inhibition (eCFP-eYFP dual reporter): 60.6% for the first, 57.5% for the second.

First: sense rArUrGrGrUrCrUrArUrCrArCrCrCrCrArArCrAdTdT / antisense rUrGrUrUrGrGrGrGrUrGrArUrArGrArCrCrArUdTdG
Second: sense rUrGrCrArGrArArCrArArCrCrGrGrCrGrGrCrUdTdT / antisense rArGrCrCrGrCrCrGrGrUrUrGrUrUrCrUrGrCrAdGdG
The normalised inhibition (eCFP-eYFP dual reporter) of the first is higher: 71.3% for the first, 67.6% for the second.

Compared with “sense rGrGrCrCrGrCrArGrArGrGrUrCrCrUrGrCrArGdTdT / antisense rCrUrGrCrArGrGrArCrCrUrCrUrGrCrGrGrCrCdTdC”, “sense rArGrGrCrGrUrCrGrGrCrGrGrCrGrCrArGrCrUdTdT / antisense rArGrCrUrGrCrGrCrCrGrCrCrGrArCrGrCrCrUdTdC” is lower in normalised inhibition (eCFP-eYFP dual reporter): 66.4% for the first, 51.7% for the second.

Compared with “sense rArGrArArGrArArGrGrArGrGrArGrGrArGrUrCdTdT / antisense rGrArCrUrCrCrUrCrCrUrCrCrUrUrCrUrUrCrUdGdC”, “sense rCrUrUrCrArArGrCrUrGrGrUrCrArUrCrUrGrUdTdT / antisense rArCrArGrArUrGrArCrCrArGrCrUrUrGrArArGdTdT” is higher in normalised inhibition (eCFP-eYFP dual reporter): 59.4% for the first, 77% for the second.

Compared with “sense rArCrGrUrCrUrGrCrCrUrCrArArCrArUrCrCrUdTdT / antisense rArGrGrArUrGrUrUrGrArGrGrCrArGrArCrGrUdTdG”, “sense rArArCrGrUrGrCrArGrCrGrCrUrCrCrArUrGrCdTdT / antisense rGrCrArUrGrGrArGrCrGrCrUrGrCrArCrGrUrUdCdT” is lower in normalised inhibition (eCFP-eYFP dual reporter): 80.4% for the first, 61.2% for the second.

Going from “sense rCrUrGrGrUrCrArUrCrUrGrUrCrCrUrGrArUrGdTdT / antisense rCrArUrCrArGrGrArCrArGrArUrGrArCrCrArGdCdT” to “sense rArGrUrGrUrGrArGrArCrArArUrGrGrUrCrUrAdTdT / antisense rUrArGrArCrCrArUrUrGrUrCrUrCrArCrArCrUdTdC”, the normalised inhibition (eCFP-eYFP dual reporter) rises from 76.7% to 92.1%.

Compared with “sense rGrUrCrCrUrGrArUrGrArGrGrGrCrUrUrCrUrAdTdT / antisense rUrArGrArArGrCrCrCrUrCrArUrCrArGrGrArCdAdG”, “sense rArCrGrArGrCrUrGrArArCrCrUrGrCrCrCrArAdTdT / antisense rUrUrGrGrGrCrArGrGrUrUrCrArGrCrUrCrGrUdTdT” is lower in normalised inhibition (eCFP-eYFP dual reporter): 80.3% for the first, 66% for the second.

Going from “sense rCrGrArGrCrUrGrArArCrCrUrGrCrCrCrArArGdTdT / antisense rCrUrUrGrGrGrCrArGrGrUrUrCrArGrCrUrCrGdTdT” to “sense rGrArUrArUrCrArGrCrUrUrCrUrCrArGrArUrCdTdT / antisense rGrArUrCrUrGrArGrArArGrCrUrGrArUrArUrCdAdC”, the normalised inhibition (eCFP-eYFP dual reporter) falls from 71.9% to 60.5%.

Going from “sense rCrUrUrCrUrUrGrGrArGrCrCrCrArArCrCrCrCdTdT / antisense rGrGrGrGrUrUrGrGrGrCrUrCrCrArArGrArArGdAdG” to “sense rArUrCrUrCrUrUrCrUrUrGrGrArGrCrCrCrArAdTdT / antisense rUrUrGrGrGrCrUrCrCrArArGrArArGrArGrArUdAdC”, the normalised inhibition (eCFP-eYFP dual reporter) rises from 61.3% to 77.1%.

Compared with “sense rGrArGrUrCrGrGrCrGrGrGrCrGrGrCrArCrCrAdTdT / antisense rUrGrGrUrGrCrCrGrCrCrCrGrCrCrGrArCrUrCdCdT”, “sense rGrGrCrGrGrCrUrGrUrUrUrGrArGrCrArGrArAdTdT / antisense rUrUrCrUrGrCrUrCrArArArCrArGrCrCrGrCrCdGdG” is higher in normalised inhibition (eCFP-eYFP dual reporter): 53% for the first, 76.6% for the second.

Going from “sense rGrGrGrUrGrGrCrUrArCrArUrCrGrGrCrUrCrCdTdT / antisense rGrGrArGrCrCrGrArUrGrUrArGrCrCrArCrCrCdCdG” to “sense rArGrArArCrArArCrCrGrGrCrGrGrCrUrGrUrUdTdT / antisense rArArCrArGrCrCrGrCrCrGrGrUrUrGrUrUrCrUdGdC”, the normalised inhibition (eCFP-eYFP dual reporter) rises from 58.1% to 61.2%.

First: sense rGrUrGrGrGrCrCrArGrGrGrUrUrArCrCrCrGrCdTdT / antisense rGrCrGrGrGrUrArArCrCrCrUrGrGrCrCrCrArCdCdT
Second: sense rUrUrUrGrUrGrUrUrCrArGrUrUrUrUrArArGrGdTdT / antisense rCrCrUrUrArArArArCrUrGrArArCrArCrArArAdCdT
The normalised inhibition (eCFP-eYFP dual reporter) of the first is higher: 56.4% for the first, 51.1% for the second.
